Measured values reported in the supplement of paper PMC10307832.

Key:
Test in all cases: relative viability (nuclei count vs DMSO), 5 days (fraction); higher = more cells survive
EKVX = tested on: EKVX
Procedure, shortened: (§1)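 Five library-drug doses in √10 steps were combined with a fixed anchor-drug dose, or a single drug was given alone, by pin tool to lung cancer cell lines in 1536-well plates the day after seeding. Nuclei were stained and counted after 5 days. Relative viability is the nuclei count in treated wells over that in vehicle wells, taken as the median of duplicate plates.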

H3255 = tested on: H3255
Procedure, shortened: as §1

HCC-15 = tested on: HCC-15
Procedure, shortened: as §1

HCC-827 = tested on: HCC-827
Procedure, shortened: as §1

LCLC-97TM1 = tested on: LCLC-97TM1
Procedure, shortened: as §1

LK-2 = tested on: LK-2
Procedure, shortened: as §1

NCI-H1355 = tested on: NCI-H1355
Procedure, shortened: as §1

NCI-H1650 = tested on: NCI-H1650
Procedure, shortened: as §1

NCI-H1734 = tested on: NCI-H1734
Procedure, shortened: as §1

NCI-H1755 = tested on: NCI-H1755
Procedure, shortened: as §1

NCI-H1975 = tested on: NCI-H1975
Procedure, shortened: as §1

NCI-H2342 = tested on: NCI-H2342
Procedure, shortened: as §1

NCI-H2405 = tested on: NCI-H2405
Procedure, shortened: as §1

NCI-H322M = tested on: NCI-H322M
Procedure, shortened: as §1

NCI-H520 = tested on: NCI-H520
Procedure, shortened: as §1

NCI-H661 = tested on: NCI-H661
Procedure, shortened: as §1

PC-14 = tested on: PC-14
Procedure, shortened: as §1

PC-3 [JPC-3] = tested on: PC-3 [JPC-3]
Procedure, shortened: as §1

RERF-LC-KJ = tested on: RERF-LC-KJ
Procedure, shortened: as §1

For `O=c1cc(-c2cccc3c2Sc2ccccc2S3)oc(N2CCOCC2)c1` + Nc1ncn([C@H]2C[C@H](O)[C@@H](CO)O2)c(=O)n1 [Decitabine] (partner 2 µM), the relative viability (EKVX; first compound 0.08 µM) was 0.431, the relative viability (EKVX; first compound 0.253 µM) was 0.34 and the relative viability (EKVX; first compound 0.8 µM) was 0.371. The relative viability (EKVX; first compound 2.53 µM) was 0.37, the relative viability (EKVX; first compound 8 µM) was 0.349 and the relative viability (H3255; first compound 0.08 µM) was 0.653. For the same compound, the relative viability (H3255; first compound 0.253 µM) was 0.68, the relative viability (H3255; first compound 0.8 µM) was 0.631 and the relative viability (H3255; first compound 2.53 µM) was 0.558. The relative viability (H3255; first compound 8 µM) was 0.689, the relative viability (HCC-15; first compound 0.08 µM) was 0.677 and the relative viability (HCC-15; first compound 0.253 µM) was 0.807. It also gave a relative viability (HCC-15; first compound 0.8 µM) of 0.64, a relative viability (HCC-15; first compound 2.53 µM) of 0.589 and a relative viability (HCC-15; first compound 8 µM) of 0.579. It also gave a relative viability (HCC-827; first compound 0.08 µM) of 0.266, a relative viability (HCC-827; first compound 0.253 µM) of 0.341 and a relative viability (HCC-827; first compound 0.8 µM) of 0.315. The relative viability (HCC-827; first compound 2.53 µM) was 0.219, the relative viability (HCC-827; first compound 8 µM) was 0.344 and the relative viability (LCLC-97TM1; first compound 0.08 µM) was 0.195. For the same compound, the relative viability (LCLC-97TM1; first compound 0.253 µM) was 0.217, the relative viability (LCLC-97TM1; first compound 0.8 µM) was 0.256 and the relative viability (LCLC-97TM1; first compound 2.53 µM) was 0.186. It also gave a relative viability (LCLC-97TM1; first compound 8 µM) of 0.242, a relative viability (LK-2; first compound 0.08 µM) of 0.245 and a relative viability (LK-2; first compound 0.253 µM) of 0.341. It also gave a relative viability (LK-2; first compound 0.8 µM) of 0.244, a relative viability (LK-2; first compound 2.53 µM) of 0.255 and a relative viability (LK-2; first compound 8 µM) of 0.335. For the same compound, the relative viability (NCI-H1355; first compound 0.08 µM) was 0.374, the relative viability (NCI-H1355; first compound 0.253 µM) was 0.382 and the relative viability (NCI-H1355; first compound 0.8 µM) was 0.342. The relative viability (NCI-H1355; first compound 2.53 µM) was 0.373, the relative viability (NCI-H1355; first compound 8 µM) was 0.331 and the relative viability (NCI-H1650; first compound 0.08 µM) was 0.415. The relative viability (NCI-H1650; first compound 0.253 µM) was 0.511, the relative viability (NCI-H1650; first compound 0.8 µM) was 0.416 and the relative viability (NCI-H1650; first compound 2.53 µM) was 0.365. For the same compound, the relative viability (NCI-H1650; first compound 8 µM) was 0.374, the relative viability (NCI-H1734; first compound 0.08 µM) was 0.452 and the relative viability (NCI-H1734; first compound 0.253 µM) was 0.574. The relative viability (NCI-H1734; first compound 0.8 µM) was 0.528, the relative viability (NCI-H1734; first compound 8 µM) was 0.512 and the relative viability (NCI-H1755; first compound 0.08 µM) was 0.716. For the same compound, the relative viability (NCI-H1755; first compound 0.253 µM) was 0.792, the relative viability (NCI-H1755; first compound 0.8 µM) was 0.762 and the relative viability (NCI-H1755; first compound 2.53 µM) was 0.688. The relative viability (NCI-H1755; first compound 8 µM) was 0.79, the relative viability (NCI-H1975; first compound 0.08 µM) was 0.366 and the relative viability (NCI-H1975; first compound 0.253 µM) was 0.36. For the same compound, the relative viability (NCI-H1975; first compound 0.8 µM) was 0.348, the relative viability (NCI-H1975; first compound 2.53 µM) was 0.38 and the relative viability (NCI-H1975; first compound 8 µM) was 0.381. It also gave a relative viability (NCI-H2342; first compound 0.08 µM) of 0.662, a relative viability (NCI-H2342; first compound 0.253 µM) of 0.794 and a relative viability (NCI-H2342; first compound 0.8 µM) of 0.734. The relative viability (NCI-H2342; first compound 2.53 µM) was 0.721, the relative viability (NCI-H2342; first compound 8 µM) was 0.77 and the relative viability (NCI-H2405; first compound 0.08 µM) was 0.697. It also gave a relative viability (NCI-H2405; first compound 0.253 µM) of 0.864, a relative viability (NCI-H2405; first compound 0.8 µM) of 0.677 and a relative viability (NCI-H2405; first compound 2.53 µM) of 0.695. The relative viability (NCI-H2405; first compound 8 µM) was 0.756, the relative viability (NCI-H322M; first compound 0.08 µM) was 0.661 and the relative viability (NCI-H322M; first compound 0.253 µM) was 0.73. The relative viability (NCI-H322M; first compound 0.8 µM) was 0.742, the relative viability (NCI-H322M; first compound 2.53 µM) was 0.634 and the relative viability (NCI-H322M; first compound 8 µM) was 0.749. For the same compound, the relative viability (NCI-H520; first compound 0.08 µM) was 0.518, the relative viability (NCI-H520; first compound 0.253 µM) was 0.623 and the relative viability (NCI-H520; first compound 0.8 µM) was 0.577. It also gave a relative viability (NCI-H520; first compound 2.53 µM) of 0.499, a relative viability (NCI-H520; first compound 8 µM) of 0.548 and a relative viability (NCI-H661; first compound 0.08 µM) of 0.536. It also gave a relative viability (NCI-H661; first compound 0.253 µM) of 0.572, a relative viability (NCI-H661; first compound 0.8 µM) of 0.518 and a relative viability (NCI-H661; first compound 2.53 µM) of 0.551. It also gave a relative viability (NCI-H661; first compound 8 µM) of 0.558, a relative viability (PC-14; first compound 0.08 µM) of 0.213 and a relative viability (PC-14; first compound 0.253 µM) of 0.19. The relative viability (PC-14; first compound 0.8 µM) was 0.185, the relative viability (PC-14; first compound 2.53 µM) was 0.165 and the relative viability (PC-14; first compound 8 µM) was 0.217. For the same compound, the relative viability (PC-3 [JPC-3]; first compound 0.08 µM) was 0.733, the relative viability (PC-3 [JPC-3]; first compound 0.253 µM) was 0.791 and the relative viability (PC-3 [JPC-3]; first compound 0.8 µM) was 0.838. The relative viability (PC-3 [JPC-3]; first compound 2.53 µM) was 0.79, the relative viability (PC-3 [JPC-3]; first compound 8 µM) was 0.884 and the relative viability (RERF-LC-KJ; first compound 0.08 µM) was 0.643. For the same compound, the relative viability (RERF-LC-KJ; first compound 0.253 µM) was 0.818, the relative viability (RERF-LC-KJ; first compound 0.8 µM) was 0.709 and the relative viability (RERF-LC-KJ; first compound 2.53 µM) was 0.655. For the same compound, the relative viability (RERF-LC-KJ; first compound 8 µM) was 0.676.
